From patent US20040044028A1, “Combinations of omega-3 fatty acids and cyclooxygenase-2 inhibitors for treatment or prevention of cardiovascular disease and treatment or prevention of cancer” (priority 2001, published 2004)
Marks after values point to notes of the source that are not given here.

How the values were obtained:
[1] = system: mouse liver; set-up: species or system mice; details: in vivo
Source text: (§1) The metabolism of stearidonic acid to long chain n-3 polyunsaturated fatty acids (i.e., eicosapentaenoic acid (EPA), docosapentaenoic acid (DPA n-3) and docosahexaenoic acid (DHA)) in mouse liver is compared to that of α-linolenic acid, eicosapentaenoic acid and docosahexaenoic acid. The method used is a non-radioactive, dose response, metabolic end-point study.
Mice are fed a US 17 diet containing α-linolenic acid ethyl ester (ALA-EE), stearidonic acid ethyl ester (SDA-EE), eicosapentaenoic acid ethyl ester (EPA-EE), or docosahexaenoic acid ethyl ester (DHA-EE) in an amount equivalent to a human western diet containing 1, 3 or 10 g/day of the fatty acid (g/day human equivalent dose). In order to maintain a 17% fat (37% energy) content in the US17 diet, oleic acid (18:1 n-9), as an oleic acid cassette, is removed from the US17 diet in an amount equal to the amount of fatty acid ester that is added. Oleic acid is selected as the replacement fatty acid because literature reports indicate that oleic acid is neutral with respect to inflammation and cancer.
After one month on the respective US17-based diets, the mice are sacrificed and the fatty acid composition of each of their livers is analyzed by gas chromatography. The sum of the long chain n-3 PUFAs (i.e., EPA+DPA n-3+DHA) increases dose dependently in liver tissue in the following rank order: DHA-EE>EPA-EE>SDA-EE>ALA-EE. […] Each of the dietary n-3 PUFAs decreases the level of arachidonic acid in liver tissue dose dependently. This is significant because arachidonic acid metabolites (e.g., prostaglandins, leukotrienes, and HETEs (hydroxyeicosatetraenoic acid)) are correlated with cardiovascular disease, inflammation, and tumorigenesis. The group “basal” refers to mice that are fed the standard rodent chow diet just prior to switching to diets that are US17 based.

[2] = system: rat liver; experiment: Metabolism in rats, end point analysis using cold fatty acid ethyl esters; type: in vivo; details: dietary ethyl esters
Procedure: Oleic acid is selected as the replacement fatty acid because literature reports indicate that oleic acid is neutral with respect to inflammation and cancer. After one month on the respective US17-based diets, the mice are sacrificed and the fatty acid composition of each of their livers is analyzed by gas chromatography. […] DHA-EE>EPA-EE>SDA-EE>ALA-EE. […] This is significant because arachidonic acid metabolites (e.g., prostaglandins, leukotrienes, and HETEs (hydroxyeicosatetraenoic acid)) are correlated with cardiovascular disease, inflammation, and tumorigenesis. The group “basal” refers to mice that are fed the standard rodent chow diet just prior to switching to diets that are US17 based. […] The method used is as described in Example 6 except that rats are used in place of mice.

[3] = system: small intestine tissue of Min/+ mouse; experiment: Arachidonic acid level in small intestine tissue of Min/+ mice; type: in vivo; details: phospholipid fraction, ethyl ester 3% wt. in US17 diet
Procedure: The efficacy of select n-3 and n-6 polyunsaturated fatty acids in reducing the level of arachidonic acid in small intestine tissue is evaluated using the Min/+ mouse model.
The following fatty acid ethyl esters are tested for their effect on intestinal fatty acid composition: 1) ALA-EE; 2) SDA-EE; 3) EPA-EE; 4) DHA-EE; 5) GLA-EE; and 6) CLA-EE. Fatty acid composition is determined in the small intestine because that is where the vast majority of polyps form.
These fatty acid esters are added to the US17 diet as discussed in Example 8. The arachidonic acid level in the phospholipid fraction of the small intestines of the mice is determined by gas chromatography.

[4] = system: HepG2 cells; experiment: Metabolism of 14C fatty acids to long chain n-3 PUFAs, EPA and DHA in HepG2 cells; type: in vitro ADME; details: for metabolized to DHA / metabolized to EPA: 20 μM 14C fatty acid
Procedure: To a culture medium containing HepG2 cells is added 20 μM ^14C-ALA, ^14C-SDA or ^14C-EPA complexed to fatty acid free BSA. The amount of ^14C-ALA, ^14C-SDA or ^14C-EPA taken up by the HepG2 cells is measured at 6 hours, 24 hours and 48 hours after addition of the fatty acid. A scintillation counter is used to measure the total amount of radioactivity in the HepG2 cells and the amount remaining in the medium.
The metabolism of stearidonic acid to long chain n-3 PUFAs (eicosatetraenoic acid (20:4n-3), eicosapentaenoic acid (20:5n-3), docosapentaenoic acid (22:5n-3), and docosahexaenoic acid (22:6n-3)) in HepG2 cells is compared to that of α-linolenic acid. HepG2 cells are allowed to take up ^14C-ALA or ^14C-SDA as described in Example 2. The total amount of ^14C-EPA, ^14C-DPA and ^14C-DHA present in the HepG2 cells is measured at 6 hours, 24 hours and 48 hours after addition of the fatty acid by argentation thin layer chromatography (TLC). The amount of each fatty acid present as a band on the TLC plate is quantified by electronic autoradiography using an Instant Imager available from Packard (Meriden, Conn.).
HepG2 cells are allowed to take up ^14C-ALA, ^14C-SDA or ^14C-EPA as described in Example 2. The amount of ^14C-EPA and ^14C-DHA present in the HepG2 cells is measured at 6 hours, 24 hours and 48 hours after addition of the fatty acids by argentation thin layer chromatography (TLC) as described in Example 3. The amount of ^14C-EPA and ^14C-DHA present as bands on the TLC plate are quantified by electronic autoradiography using an Instant Imager as described in Example 3.

[5] = system: mouse liver; experiment: Metabolism in mice, time course analysis using radiolabeled fatty acids; type: in vivo; details: 10 μCi intraperitoneal, at 24 hours
Source text: as §1, with “n-3),” for “n-3)”, “time course study using ^14C-labeled fatty acids.” for “non-radioactive, dose response, metabolic end-point study.”
Mice are fed the US 17 diet for a period of one month in order to achieve steady-state fatty acid metabolism. After achieving steady-state fatty acid metabolism, the mice are administered an intraperitoneal injection containing 10 μCi of ^14C-ALA, ^14C-SDA, ^14C-EPA or ^14C-DHA. Mice are sacrificed 3 hours, 8 hours or 24 hours post-injection, and the total amount of ^14C-EPA, ^14C-DPA n-3 and ^14C-DHA is measured by argentation thin layer chromatography followed by direct electronic autoradiography, as described in Example 3. The order of metabolism of the PUFAs is DHA=EPA>SDA>ALA at 24 hours. SDA is metabolized to long chain n-3 PUFAs more efficiently than ALA in vivo.

[6] = system: Min/+ mouse model of intestinal cancer; experiment: Min/+ mouse model of intestinal cancer, intestinal polyp formation; type: in vivo; details: for mice with large intestine tumors / mice in group (in parentheses): seven weeks on US17 diet with fatty acid ethyl ester 3% wt. or sulindac 320 ppm; for effect on polyp number: differences not significant relative to the US17 control
Procedure: The efficacy of select n-3 and n-6 polyunsaturated fatty acids is evaluated in the Min/+ mouse model of intestinal cancer. The following fatty acid ethyl esters are tested for their effect on intestinal polyp formation: 1) ALA-EE; 2) SDA-EE; 3) EPA-EE; 4) DHA-EE; 5) GLA-EE ([…] adid, 18:3 n-6); and 6) CLA-EE (conjugated linoleic acid; c9t11-18:2 (77%)+c9c11-18:2 (18%)+other isomers (5%)).
These fatty acid ethyl esters are added to the US17 diet to provide 10 g/day human equivalent dose (3% wt.). The NSAID, sulindac (320 ppm), serves as the positive control. In order to maintain a 17% fat (37 en %) content in the US17 diet, oleic acid (18:1 n-9) is removed from the US17 diet in an amount equal to the amount of the fatty acid ethyl ester that is added. Mice are received at approximately five weeks of age and are fed the test diets upon receipt. After seven weeks on the respective test diet, the mice are sacrificed and the intestinal polyps are counted and measured.

[7] = Min/+ mice, seven weeks, ethyl ester 3% wt. or sulindac 320 ppm
[8] = large and small intestine, Min/+ mice, seven weeks, ethyl ester 3% wt. or sulindac 320 ppm, mean ± SEM
[9] = Min/+ mice, seven weeks, ethyl ester 3% wt. or sulindac 320 ppm, mean ± SEM
[10] = tumor number × tumor size, Min/+ mice, seven weeks, ethyl ester 3% wt. or sulindac 320 ppm, mean ± SEM

## CC/C=C\C/C=C\C/C=C\CCCCCCCC(=O)OCC [ALA-EE, α-linolenic acid ethyl ester]
[1]
  sum of the long chain n-3 PUFAs (EPA+DPA n-3+DHA) in liver tissue, rank order of dose dependent increase: DHA-EE>EPA-EE>SDA-EE>ALA-EE

## CC/C=C\C/C=C\C/C=C\C/C=C\CCCCC(=O)OCC [SDA-EE, stearidonic acid ethyl ester]
[1]
  sum of the long chain n-3 PUFAs (EPA+DPA n-3+DHA) in liver tissue, rank order of dose dependent increase: DHA-EE>EPA-EE>SDA-EE>ALA-EE

## CC/C=C\C/C=C\C/C=C\C/C=C\CCCCC(=O)O [Compound A-2, all cis 6,9,12,15-octadecatetraenoic acid]
[2]
  decrease in the level of arachidonic acid, comparison: greater decrease in the level of arachidonic acid than does either ALA or EPA
  metabolism to long chain n-3 polyunsaturated fatty acids, comparison: better than ALA
[3]
  decreasing the level of arachidonic acid in the small intestine, comparison: more effective than ALA, EPA and DHA
[4]
  metabolism to long chain n-3 PUFAs, comparison: faster than that of ALA
  metabolized to DHA: 6%
  metabolized to EPA: 55%
[5]
  order of metabolism of the PUFAs to long chain n-3 PUFAs (14C-EPA, 14C-DPA n-3, 14C-DHA): DHA=EPA>SDA>ALA
[6]; [7]
  Total small intestine tumors/group: 18
[6]; [8]
  Total Avg. tumors/mouse: 18.7 ± 1.9^c
[6]
  mice with large intestine tumors / mice in group (in parentheses): 2/10

## CCCCC/C=C\C/C=C\C/C=C\CCCCC(=O)O [GLA, γ-linolenic acid, reference compound]
[6]; [7]
  Total small intestine tumors/group: 42
[6]; Min/+ mice
  effect on polyp number: appears to increase polyp number
[6]
  mice with large intestine tumors / mice in group (in parentheses): 6/9

## CC1=C(CC(=O)O)c2cc(F)ccc2/C1=C\c1ccc([S+](C)[O-])cc1 (centres unmarked) [Sulindac, sulindac, reference compound]
[6]; [9]
  Avg. large intestine tumors/mouse: 0.2 ± 0.2^ad
[6]
  mice with large intestine tumors / mice in group (in parentheses): 2/9

## CC/C=C\C/C=C\C/C=C\CCCCCCCC(=O)O [Compound A-1, all cis 9,12,15-octadecatrienoic acid]
[4]
  metabolized to DHA: 3%
  metabolized to EPA: 24%
[6]; Min/+ mice
  effectiveness in inhibiting polyp formation and development in the large intestine: marginally efficacious
[6]; Min/+ mice, seven weeks on US17 diet with fatty acid ethyl ester 3% wt. (10 g/day human equivalent dose) or sulindac 320 ppm
  Total large intestine tumors/group: 8
[6]; [7]
  Total small intestine tumors/group: 364
[6]; [9]
  Avg. large intestine tumors/mouse: 0.8 ± 0.3^bcd
  Avg. small intestine tumor size: 1.23 ± 0.04^ab mm
  Avg. small intestine tumors/mouse: 36.4 ± 6.3^ab
[6]; Min/+ mice, seven weeks, ethyl ester 3% wt. or sulindac 320 ppm, mean ± SEM, only animals bearing colonic tumors
  Avg. large intestine tumor size: 2.75 ± 0.46^ab
[6]; [8]
  Total Avg. overall tumor size: 1.21 ± 0.03^bc mm
  Total Avg. tumors/mouse: 37.2 ± 6.6^ab
[6]
  mice with large intestine tumors / mice in group (in parentheses): 5/10
[6]; tumor number × tumor size, large and small intestine, Min/+ mice, seven weeks, ethyl ester 3% wt. or sulindac 320 ppm, mean ± SEM
  Total Avg. overall tumor load: 45.97 ± 8.88^ab mm
[6]; [10]
  Avg. large intestine tumor load: 2.15 ± 0.82^bcd mm
  Avg. small intestine tumor load: 45.67 ± 8.66^ab mm

## CC/C=C\C/C=C\C/C=C\C/C=C\C/C=C\CCCC(=O)OCC [EPA-EE, eicosapentaenoic acid ethyl ester]
[1]
  sum of the long chain n-3 PUFAs (EPA+DPA n-3+DHA) in liver tissue, rank order of dose dependent increase: DHA-EE>EPA-EE>SDA-EE>ALA-EE

## CC/C=C\C/C=C\C/C=C\C/C=C\C/C=C\CCCC(=O)O [Compound A-4, all cis (5,8,11,14,17-eicosapentaenoic acid]
[6]; Min/+ mice
  effectiveness in inhibiting polyp formation and development in the large intestine: marginally efficacious
[6]; [7]
  Total small intestine tumors/group: 17
[6]; [8]
  Total Avg. tumors/mouse: 18.5 ± 2.2^c
[6]
  mice with large intestine tumors / mice in group (in parentheses): 6/10
[6]; [10]
  Avg. small intestine tumor load: 18.34 ± 2.04^cd mm

## CC/C=C\C/C=C\C/C=C\C/C=C\C/C=C\C/C=C\CCC(=O)O [Compound A-6, all cis 4,7,10,13,16,19-docosahexanoic acid]
[5]
  order of metabolism of the PUFAs to long chain n-3 PUFAs (14C-EPA, 14C-DPA n-3, 14C-DHA): DHA=EPA>SDA>ALA
[6]
  mice with large intestine tumors / mice in group (in parentheses): 9/10

## CC/C=C\C/C=C\C/C=C\C/C=C\C/C=C\C/C=C\CCC(=O)OCC [DHA-EE, docosahexaenoic acid ethyl ester]
[1]
  sum of the long chain n-3 PUFAs (EPA+DPA n-3+DHA) in liver tissue, rank order of dose dependent increase: DHA-EE>EPA-EE>SDA-EE>ALA-EE

## conjugated linoleic acid [CLA, reference compound]
[6]; [7]
  Total small intestine tumors/group: 40
[6]; Min/+ mice
  effect on polyp number: appears to increase polyp number
[6]
  mice with large intestine tumors / mice in group (in parentheses): 5/9
